These compounds were tested against T1, hNLRP3 (Homo sapiens, UniProt Q96P20) (assay: Measurement of IL-1β production in PMA-differentiated THP-1 cells (hNLRP3 agonist; ELISA, alternative and hTRF procedures)).
T1 construct: THP-1 cells were purchased from the American Type Culture Collection; host or cells: THP-1 cells, PMA-differentiated
Type: cell-based
Method in brief: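 PMA-differentiated THP-1 cells (PMA […] 24 h, 20 μg/ml overnight, or 50 ng/ml overnight, by procedure) replated in RPMI with 2% FBS and exposed to compound (e.g. 100–0.1 μM, 1% DMSO; hTRF format top 10 μM) for 4 h, 2 h, or 2 h respectively. Supernatant IL-1β measured by ELISA, or by hTRF with antibodies diluted 1:40.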

T1 sequence (Q96P20 whole entry): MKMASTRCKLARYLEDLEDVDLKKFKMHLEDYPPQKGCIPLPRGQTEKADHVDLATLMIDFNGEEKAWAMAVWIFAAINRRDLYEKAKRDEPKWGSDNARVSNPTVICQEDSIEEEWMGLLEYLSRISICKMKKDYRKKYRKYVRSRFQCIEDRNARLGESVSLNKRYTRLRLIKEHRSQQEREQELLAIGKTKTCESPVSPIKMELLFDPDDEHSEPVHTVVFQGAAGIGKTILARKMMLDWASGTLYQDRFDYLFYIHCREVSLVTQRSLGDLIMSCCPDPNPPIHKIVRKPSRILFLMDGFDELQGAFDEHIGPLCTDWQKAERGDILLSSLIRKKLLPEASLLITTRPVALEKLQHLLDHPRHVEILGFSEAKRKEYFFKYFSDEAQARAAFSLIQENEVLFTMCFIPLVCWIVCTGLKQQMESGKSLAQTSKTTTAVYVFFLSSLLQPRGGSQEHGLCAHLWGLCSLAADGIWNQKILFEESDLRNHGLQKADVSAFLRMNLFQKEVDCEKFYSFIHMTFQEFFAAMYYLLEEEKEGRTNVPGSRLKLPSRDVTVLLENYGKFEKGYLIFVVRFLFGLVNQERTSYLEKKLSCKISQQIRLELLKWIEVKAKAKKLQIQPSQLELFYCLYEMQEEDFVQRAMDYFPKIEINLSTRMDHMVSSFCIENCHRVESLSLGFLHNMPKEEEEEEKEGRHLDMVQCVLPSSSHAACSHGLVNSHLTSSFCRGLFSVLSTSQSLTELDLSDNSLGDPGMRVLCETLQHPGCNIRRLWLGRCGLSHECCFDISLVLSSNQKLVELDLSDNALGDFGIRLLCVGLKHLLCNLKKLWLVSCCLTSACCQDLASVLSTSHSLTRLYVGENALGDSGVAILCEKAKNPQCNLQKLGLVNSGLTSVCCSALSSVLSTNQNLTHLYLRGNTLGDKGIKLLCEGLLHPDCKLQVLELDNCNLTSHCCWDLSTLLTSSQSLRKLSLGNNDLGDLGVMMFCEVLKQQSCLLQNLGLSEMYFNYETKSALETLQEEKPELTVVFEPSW

EC50 [nM]	SMILES
720	CCC(=O)NCc1nc2c(N)nc3cc(-c4cc[nH]n4)ccc3c2[nH]1 [Compound 111]
1040	CCN(Cc1nc2c(N)nc3cc(-c4cc[nH]n4)ccc3c2[nH]1)C(=O)c1nccs1 [Compound 114]
900	CN(Cc1nc2c(N)nc3cc(-c4cc[nH]n4)ccc3c2[nH]1)S(C)(=O)=O [Compound 115]
1260	CC(c1nc2c(N)nc3cc(-n4cccn4)ccc3c2[nH]1)N1CCCC1=O (stereo not drawn) [Compound 117]
1360	CCN(Cc1nc2c(N)nc3cc(-c4cc[nH]n4)ccc3c2[nH]1)C(=O)C1CC1 [Compound 118]
240	Nc1nc2cc(-c3cccs3)ccc2c2[nH]c(CN3CCCC3=O)nc12 [Compound 309, 1-[(4-amino-7-thiophen-2-yl-1H-imidazo[4,5-c]quinolin-2-yl)methyl]pyrrolidin-2-one]
1180	N#Cc1ccccc1-c1ccc2c(c1)nc(N)c1nc(CN3CCCC3=O)[nH]c12 [Compound 315, 2-[4-amino-2-[(2-oxopyrrolidin-l-yl)methyl]-1H-imidazo[4,5-c]quinolin-7-yl]benzonitrile]
1100	Nc1nc2cc(Br)ccc2c2[nH]c(CN3CC(c4ccccc4)CC3=O)nc12 (stereo not drawn) [Compound 316, 1-[(4-amino-7-bromo-1H-imidazo[4,5-c]quinolin-2-yl)methyl]-4-phenylpyrrolidin-2-one]
6200	COc1ncccc1-c1ccc2c(c1)nc(N)c1nc(CN3CCCC3=O)[nH]c12 [Compound 319, 1-[[4-amino-7-(2-methoxypyridin-3-yl)-1H-imidazo[4,5-c]quinolin-2-yl]methyl]pyrrolidin-2-one]
1500	Nc1nc2cc(-c3cccnc3Cl)ccc2c2[nH]c(CN3CCCC3=O)nc12 [Compound 320, 1-[[4-amino-7-(2-chloropyridin-3-yl)-1H-imidazo[4,5-c]quinolin-2-yl]methyl]pyrrolidin-2-one]
4500	Nc1nc2cc(-c3cnccc3Cl)ccc2c2[nH]c(CN3CCCC3=O)nc12 [Compound 321, 1-[[4-amino-7-(4-chloropyridin-3-yl)-1H-imidazo[4,5-c]quinolin-2-yl]methyl]pyrrolidin-2-one]
6700	Nc1nc2cc(-c3ccc(C(F)(F)F)nc3)ccc2c2[nH]c(CN3CCCC3=O)nc12 [Compound 324, 1-[[4-amino-746-(trifluoromethyppyridin-3-yl]-1H-imidazo[4,5-c]quinolin-2-yl]methyl]pyrrolidin-2-one]
2700	N#Cc1cncc(-c2ccc3c(c2)nc(N)c2nc(CN4CCCC4=O)[nH]c23)c1 [Compound 326, 5-[4-amino-2-[(2-oxopyrrolidin-l-yl)methyl]-1H-imidazo[4,5-c]quinolin-7-yl]pyridine-3-carbonitrile]
13000	N#Cc1ccc(-c2ccc3c(c2)nc(N)c2nc(CN4CCCC4=O)[nH]c23)cn1 [Compound 327, 5-[4-amino-2-[(2-oxopyrrolidin-l-yl)methyl]-1H-imidazo[4,5-c]quinolin-7-yl]pyridine-2-carbonitrile]
4100	Nc1nc2cc(-c3cncc(Cl)c3)ccc2c2[nH]c(CN3CCCC3=O)nc12 [Compound 328, 1-[[4-amino-7-(5-chloropyridin-3-yl)-1H-imidazo[4,5-c]quinolin-2-yl]methyl]pyrrolidin-2-one]
1600	Nc1nc2cc(-c3ccc(F)nc3)ccc2c2[nH]c(CN3CCCC3=O)nc12 [Compound 330, 1-[[4-amino-7-(6-fluoropyridin-3-yl)-1H-imidazo[4,5-c]quinolin-2-yl]methyl]pyrrolidin-2-one]
3200	Nc1nc2cc(-c3cncc(F)c3)ccc2c2[nH]c(CN3CCCC3=O)nc12 [Compound 331, 1-[[4-amino-7-(5-fluoropyridin-3-yl)-1H-imidazo[4,5-c]quinolin-2-yl]methyl]pyrrolidin-2-one]
3300	Nc1nc2cc(C3CCCCCC3)ccc2c2[nH]c(CN3CCCC3=O)nc12 [Compound 332, 1-[(4-amino-7-cycloheptyl-1H-imidazo[4,5-c]quinolin-2-yl)methyl]pyrrolidin-2-one]
1900	Nc1nc2cc(-c3cccnc3)ccc2c2[nH]c(CN3CC(c4ccccc4)CC3=O)nc12 (stereo not drawn) [Compound 333, 1-[(4-amino-7-pyridin-3-yl-1H-imidazo[4,5-c]quinolin-2-yl)methyl]-4-phenylpyrrolidin-2-one]
6500	COC(=O)CCCn1c(CN2CCCC2=O)nc2c(N)nc3ccccc3c21 [Compound 335]
80000	CN(C)C(=O)CCCn1c(CN2CCCC2=O)nc2c(N)nc3cc(Cl)ccc3c21 [Compound 337]

EC50 [nM]	SMILES
50000	CN(C)C(=O)CCCn1c(CN2CCCC2=O)nc2c(N)nc3cc(-c4cccnc4)ccc3c21 [Compound 340]
2100	COC(=O)CCCn1c(CN2CCCC2=O)nc2c(N)nc3cc(Br)ccc3c21 [Compound 341]
3300	COC(=O)CCCn1c(CN2CCCC2=O)nc2c(N)nc3cc(-c4cccnc4)ccc3c21 [Compound 342]
17300	Nc1nc2ccccc2c2[nH]c(CN3CCCCC3=O)nc12 [Compound 346]
41000	COC(=O)CCCn1c(CN2CCCCC2=O)nc2c(N)nc3ccccc3c21 [Compound 347]
890	CN(C)Cc1nc2c(N)nc3cc(-c4cc[nH]n4)ccc3c2[nH]1 [Compound 348]
600	CCN(C)Cc1nc2c(N)nc3cc(-c4cc[nH]n4)ccc3c2[nH]1 [Compound 349]
640	Nc1nc2cc(-n3cccn3)ccc2c2[nH]c(CN3C[C@@H](c4ccccc4)CC3=O)nc12 [Compound 357]
630	Nc1nc2cc(-n3cccn3)ccc2c2[nH]c(CN3C[C@H](c4ccccc4)CC3=O)nc12 [Compound 358]
5800	Nc1nc2cc(-c3cc[nH]n3)ccc2c2[nH]c(CN3C(=O)OCC3c3ccccc3)nc12 (stereo not drawn) [Compound 363]
5000	Nc1nc2cc(-c3cc[nH]n3)ccc2c2[nH]c(CN3CCOC3=O)nc12 [Compound 365]
3900	CN1CCN(Cc2nc3c(N)nc4cc(-c5cc[nH]n5)ccc4c3[nH]2)C1=O [Compound 368]
4800	CN(Cc1nc2c(N)nc3cc(-c4cc[nH]n4)ccc3c2[nH]1)C(=O)CO [Compound 370]
8300	CN(Cc1nc2c(N)nc3cc(-c4cc[nH]n4)ccc3c2[nH]1)C(=O)CN [Compound 372]
2400	CN(C)C(=O)N(C)Cc1nc2c(N)nc3cc(-c4cc[nH]n4)ccc3c2[nH]1 [Compound 375]
3600	CN(Cc1nc2c(N)nc3cc(-c4cc[nH]n4)ccc3c2[nH]1)C(=O)c1ccccc1 [Compound 376]
4300	CN(Cc1nc2c(N)nc3cc(-c4cc[nH]n4)ccc3c2[nH]1)C(=O)c1nccs1 [Compound 377]
2000	CCN(C=O)Cc1nc2c(N)nc3cc(-c4cc[nH]n4)ccc3c2[nH]1 [Compound 379]
3600	CCN(Cc1nc2c(N)nc3cc(-c4cc[nH]n4)ccc3c2[nH]1)C(=O)CN(C)C [Compound 383]
7110	CCN(Cc1nc2c(N)nc3cc(-c4ccn(C)n4)ccc3c2[nH]1)C(=O)OC(C)(C)C [Compound 393]
1050	CCN(Cc1nc2c(N)nc3cc(-c4ccsc4)ccc3c2[nH]1)C(=O)OC(C)(C)C [Compound 397]

EC50 [nM]	SMILES
1220	CCNCc1nc2c(N)nc3cc(-n4cccn4)ccc3c2[nH]1 [Compound 398]
1060	CCNCc1nc2c(N)nc3cc(-c4cccs4)ccc3c2[nH]1 [Compound 399]
1790	CCNCc1nc2c(N)nc3cc(-c4ccsc4)ccc3c2[nH]1 [Compound 400]
1230	CNCc1nc2c(N)nc3cc(-c4cc[nH]n4)ccc3c2[nH]1 [Compound 401]
1310	CNCc1nc2c(N)nc3cc(-n4cccn4)ccc3c2[nH]1 [Compound 402]
3660	COc1ccc(Cn2c(CN3CCN(C)C3=O)nc3c(N)nc4cc(-c5cc[nH]n5)ccc4c32)cc1 [Compound 403]
2500	COc1ccc(Cn2c(CN3C(=O)OCC3COCc3ccccc3)nc3c(N)nc4cc(-c5cc[nH]n5)ccc4c32)cc1 (stereo not drawn) [Compound 404]
2190	COC(=O)N(C)Cc1nc2c(N)nc3cc(-c4cc[nH]n4)ccc3c2[nH]1 [Compound 405]
1370	CCN(Cc1nc2c(N)nc3cc(-c4cc[nH]n4)ccc3c2[nH]1)C(=O)OC [Compound 406]
6550	Nc1nc2cc(-c3cc[nH]n3)ccc2c2[nH]c(CN3C[C@@H](c4ccccc4)CC3=O)nc12 [Compound 407]
5230	Nc1nc2cc(-c3cc[nH]n3)ccc2c2[nH]c(CN3C[C@H](c4ccccc4)CC3=O)nc12 [Compound 408]
2360	COc1ccc(Cn2c(CN3C(=O)OCC3c3ccccc3)nc3c(N)nc4cc(-c5cc[nH]n5)ccc4c32)cc1 (stereo not drawn) [Compound 409]
3830	COc1ccc(Cn2c(Cn3cnccc3=O)nc3c(N)nc4cc(-c5cc[nH]n5)ccc4c32)cc1 [Compound 414]
7400	CCN(Cc1nc2c(N)nc3cc(-c4cc[nH]n4)ccc3c2[nH]1)C(=O)C1COC1 [Compound 417]
910	CCN(Cc1nc2c(N)nc3cc(-c4ccsc4)ccc3c2[nH]1)C(C)=O [Compound 419, N-((4-Amino-7-(thiophen-3-yl)-1H-imidazo[4,5-c]quinolin-2-yl)methyl)-N-ethylacetamide]
190	CCN(Cc1nc2c(N)nc3cc(-c4cc[nH]n4)ccc3c2n1C)C(=O)OC(C)(C)C [Compound 420]
280	CCN(Cc1nc2c(N)nc3cc(-c4ccc(C)cc4)ccc3c2[nH]1)C(C)=O [Compound 422]
620	Nc1nc2cc(-n3cccn3)ccc2c2[nH]c(CN3CCCCC3=O)nc12 [Compound 423]
5000	CCN(Cc1nc2c(N)nc3cc(-c4cncc(F)c4)ccc3c2[nH]1)C(C)=O [Compound 427]
7450	CCN(Cc1nc2c(N)nc3cc(Br)ccc3c2n1CC(C)C)C(C)=O [Compound 430]
8670	CCN(Cc1nc2c(N)nc3cc(Br)ccc3c2n1CCCOC)C(C)=O [Compound 431]
